The compound `*/C(C#N)=C/c1ccc(N(CC)Cc2ccccc2CN(CC)c2ccc(/C=C(\C#N)S(*)(=O)=O)cc2)cc1` (repeat unit) came in with a glass transition temperature of 190.00 °C. Then `*/C=C(\C#N)C(=O)NC1CCCCC1NC(=O)/C(C#N)=C/c1ccc(/C=C/c2ccc(N(CC)Cc3cccc(CN(CC)c4ccc(/C=C/c5ccc(*)s5)cc4)c3)cc2)s1` (repeat unit), with 157.00 °C; and `*/C=C(\C#N)c1cccc(/C(C#N)=C/c2ccc(/C=C/c3ccc(N(CC)Cc4ccccc4CN(CC)c4ccc(/C=C/c5ccc(*)s5)cc4)cc3)s2)c1` (repeat unit), with 178.00 °C; and `*/C=C/c1ccc(N(CC)Cc2ccccc2CN(CC)c2ccc(/C=C/c3ccc(/C=C(\C#N)S(=O)(=O)/C(C#N)=C/c4ccc(*)s4)s3)cc2)cc1` (repeat unit), with 178.00 °C.

`*=CNc1ccc(CCc2ccc(N=*)cc2)cc1` (repeat unit) registered a glass transition temperature of 125.00 °C. Next, `*CC1CCC(COP(=O)(/N=N/c2ccc(-c3ccc(/N=N/P(=O)(O*)OC)cc3)cc2)OC)CC1` (repeat unit): 58.00 °C.

For the compound `*CC1CCC(COP(=O)(/N=N/c2ccc(C(=O)c3ccc(/N=N/P(=O)(O*)OC)cc3)cc2)OC)CC1` (repeat unit), the glass transition temperature amounted to 52.00 °C. Next, `*CCCCCCOP(=O)(/N=N/c1ccc(C(=O)c2ccc(/N=N/P(=O)(O*)OC)cc2)cc1)OC` (repeat unit): 31.00 °C. With `*CCN(CCOC(=O)c1cc(OCc2c(F)c(F)c(OC)c(F)c2F)cc(C(=O)O*)c1)c1ccc(/C=C/c2ccc(/C=C/C3=C(C#N)C(=C(C#N)C#N)OC3(c3ccccc3)C(F)(F)F)s2)cc1` (repeat unit), the glass transition temperature stood at 140.00 °C. `*CCN(CCOC(=O)c1ccc(C(=O)O*)c(OCCC)c1)c1ccc(-c2nc3ccc([N+](=O)[O-])cc3o2)cc1` (repeat unit): the glass transition temperature came to 119.00 °C. Then `*CCN(CCOC(=O)c1ccc(C(=O)O*)c(OCCCCC)c1)c1ccc(/N=N/c2nc(C#N)c(C#N)[nH]2)cc1` (repeat unit), with 131.00 °C; and `*CCOC(=O)c1ccc(-c2ccc(C(=O)O*)cc2C)c(C)c1` (repeat unit), with 73.00 °C.

In the case of `*CCOCCOP(=O)(/N=N/c1ccc(-c2ccc(/N=N/P(=O)(O*)OC)cc2)cc1)OC` (repeat unit), the glass transition temperature worked out at 22.00 °C.

As to `*CCOCCOP(=O)(/N=N/c1ccc(C(=O)c2ccc(/N=N/P(=O)(O*)OC)cc2)cc1)OC` (repeat unit), the glass transition temperature is 33.00 °C. Then `*CCOCCOP(=O)(/N=N/c1ccc(Oc2ccc(/N=N/P(=O)(O*)OC)cc2)cc1)OC` (repeat unit), with 32.00 °C; and `*CCOP(=O)(/N=N/c1ccc(CCOC(=O)c2cc(C(=O)OCCc3ccc(/N=N/P(=O)(O*)OC)cc3)cc(C(C)(C)C)c2)cc1)OC` (repeat unit), with 84.00 °C. Next, `*[CH2][Ge]([CH3])([CH3])[CH2]c1cocc1*` (repeat unit): -28.00 °C; `*N(C)[Si](*)(C)C=C` (repeat unit): -20.00 °C; `*N(C)[Si](C)(C)N(C)[Si](*)(C)CC` (repeat unit): -20.00 °C.

Regarding `*N=P(*)(C)C` (repeat unit), the glass transition temperature was -42.00 °C. Then `*N=P(*)(C)CCCCCC` (repeat unit), with -69.00 °C; and `*N=P(*)(CCC)CCC` (repeat unit), with 10.00 °C; and `*Oc1c(F)c(F)c(-c2c(F)c(F)c(Oc3ccc(Cc4ccc(*)c(C=O)c4)cc3C=O)c(F)c2F)c(F)c1F` (repeat unit), with 198.00 °C. Next, `*Oc1ccc(/N=N/c2c(C)cc(Cc3cc(C)c(/N=N/c4ccc(OC(=O)c5ccc(C(*)=O)cc5)cc4)c(C)c3[N+](=O)[O-])c([N+](=O)[O-])c2C)cc1` (repeat unit): 203.00 °C; `*Oc1ccc(CC(C#N)(Cc2ccc(*)cc2)c2ccccc2)cc1` (repeat unit): 143.00 °C. On to `*Oc1ccc(CC(Cc2ccc(*)cc2)(C(=O)OCC)C(=O)OCC)cc1` (repeat unit), for which the glass transition temperature stood at 54.00 °C.

Compound `*Oc1ccc(CC(NC(=O)CCc2ccc(OC(=O)CCCCC(*)=O)cc2)C(=O)OC(C)CC)cc1` (repeat unit) came in with a glass transition temperature of 50.00 °C. Next, `*Oc1ccc(CC(NC(=O)CCc2ccc(OC(=O)CCCCC(*)=O)cc2)C(=O)OCC(C)C)cc1` (repeat unit): 56.00 °C; `*Oc1ccc(CC(NC(=O)CCc2ccc(OC(=O)CCCCC(*)=O)cc2)C(=O)OCC)cc1` (repeat unit): 61.00 °C; `*Oc1ccc(CC(NC(=O)CCc2ccc(OC(=O)CCCCCCC(*)=O)cc2)C(=O)OCC(C)C)cc1` (repeat unit): 42.00 °C.

Regarding `*Oc1ccc(CC(NC(=O)CCc2ccc(OC(=O)CCCCCCCCC(*)=O)cc2)C(=O)OCC(C)C)cc1` (repeat unit), the glass transition temperature amounted to 33.00 °C.

For the compound `*Oc1ccc(CC(NC(=O)CCc2ccc(OC(=O)CCCCCCCCC(*)=O)cc2)C(=O)OCCCCCCCC)cc1` (repeat unit), the glass transition temperature amounted to 15.50 °C. Next, `*Oc1ccc(CC(NC(=O)CCc2ccc(OC(=O)COCC(*)=O)cc2)C(=O)OC(C)C)cc1` (repeat unit): 80.00 °C; `*Oc1ccc(CC(NC(=O)CCc2ccc(OC(=O)COCC(*)=O)cc2)C(=O)OC(C)CC)cc1` (repeat unit): 68.00 °C; `*Oc1ccc(CC(NC(=O)CCc2ccc(OC(=O)COCC(*)=O)cc2)C(=O)OCC)cc1` (repeat unit): 79.00 °C.

Regarding `*Oc1ccc(CC(NC(=O)CCc2ccc(OC(=O)COCC(*)=O)cc2)C(=O)OCCCCCCCCCCCC)cc1` (repeat unit), the glass transition temperature is 36.00 °C.

Take `*Oc1ccc(CC(NC(=O)CCc2ccc(OC(=O)COCCOCC(*)=O)cc2)C(=O)OC(C)C)cc1` (repeat unit): the glass transition temperature was 58.00 °C.

Compound `*Oc1ccc(CC(NC(=O)CCc2ccc(OC(=O)COCCOCC(*)=O)cc2)C(=O)OCCCC)cc1` (repeat unit) yielded a glass transition temperature of 45.00 °C.

With `*Oc1ccc(CC(NC(=O)Cc2ccc(OC(=O)CCCCCCC(*)=O)cc2)C(=O)OCC)cc1` (repeat unit), the glass transition temperature turned out to be 54.00 °C.

Compound `*Oc1ccc(CC(NC(=O)Cc2ccc(OC(=O)CCCCCCC(*)=O)cc2)C(=O)OCCCCCCCC)cc1` (repeat unit) yielded a glass transition temperature of 22.00 °C.

Consider `*Oc1ccc(CC(NC(=O)Cc2ccc(OC(=O)COCCOCC(*)=O)cc2)C(=O)OCC)cc1` (repeat unit), for which the glass transition temperature turned out to be 50.00 °C. Compound `*Oc1ccc(CC(NC(=O)Cc2ccc(OC(=O)COCCOCC(*)=O)cc2)C(=O)OCCCCCC)cc1` (repeat unit) showed a glass transition temperature of 31.00 °C.

In the case of `*Oc1ccc(CC(NC(=O)Cc2ccc(OC(=O)COCCOCC(*)=O)cc2)C(=O)OCCCCCCCC)cc1` (repeat unit), the glass transition temperature worked out at 23.00 °C. Then `*Oc1ccc(Cc2ccc(OC(*)=O)c(C)c2)cc1C` (repeat unit), with 51.00 °C.

The values are drawn from the PolyMetriX glass transition set.
